Laboratory results reported in patent publication US6974702B2, “Fourier transform mass spectrometry of complex biological samples” (Esperion Therapeutics, Inc., priority 2000, dated 2005).

Assays:
[1] = experimental rats; see U.S. application Ser. No. 09/540,738; cited from earlier work
[2] = HICS-FTMS of plasma from rats treated by oral gavage; format: in vivo; settings: rat plasma, 100 mg/kg daily by oral gavage for one week, versus untreated rats
Description: Three rats were treated daily with 100 mg/kg of 6-(6-hydroxy-5,5-dimethylhexyloxy)-2,2-dimethyl-hexan-1-ol by oral gavage, over the course of one week. 6-(6-hydroxy-5,5-dimethylhexyloxy)-2,2-dimethyl-hexon-1-ol increases HDL-cholesterol and improves glucose utilization in experimental rats (see U.S. application Ser. No. 09/540,738 , filed Mar. 31, 2000). At the end of the week, blood was drawn from each of the three rats, as well as from three control (untreated) rats. The blood was allowed to coagulate, and the plasma was prepared for FTMS by adding a water and methanol solution (49:49:2, water:methanol:acetic acid v:v:v) each of the plasma preparations. The mixture was chilled to precipitate the proteins to the bottom of the tube. Each tube was centrifuged, the supernatant decanted and the sample desalted by adding approximately 100 mg of DOWEX ion exchange resin to each vial and incubating the sample with the resin for approximately 10 minutes. The sample was then centrifuged and the supernatant removed. This solution was then introduced to the FT mass spectrometer.

[3] = test system: primary rat hepatocyte cells; assay: FTMS of extracts of primary rat hepatocytes treated with lovastatin; format: cell-based; settings: lovastatin 0.03 to 30 μM for 4 hours, normalized against untreated
Description: A male Sprague-Dawley rat was anesthetized by administration of sodium pentobarbitol by at 50 mg/kg body mass be intraperitoneal injection. In situ perfusion of the liver was performed as follows. The abdomen of the animal was opened, the portal vein was cannulated, and the liver perfused with WOSH solution (149 mM NaCl, 9.2 mM Na HEPES, 1.7 mM fructose, 0.5 mM EGTA, 10 U/ml heparin, pH 7.5) at a flow rate of 30 ml/min for 6 minutes. To digest the liver, DSC solution (6.7 mM KCl, 143 mM NaCl, 9.2 mM Na HEPES, 5 mM CaCl2-2H2O, 1.7 mM fructose, 0.2% BSA, 100 U/ml collagenase Type I, 80 U/ml, 160 BAEE/ml trypsin inhibitor, pH 7.5) was perfused through the liver at a flow rate of 30 ml/min for 6 minutes at a temperature of 37° C. After digestion, cells were dispersed in a solution of DMEM- (DMEM containing 2mM GlutMax-1, 0.2% BSA, 5% FBS, 12 nM insulin, 1.2 μM hydrocortisone) to stop the digestion process. The crude cell suspension was filtered through three layers of stainless steel mesh with pore sizes of 250, 106, and 75 um respectively. Filtered cells were centrifuged at 50×g for two minutes and the supernatant discarded. […]
All measurements were carried out on a Bruker APEX II FTMS equipped with a 7.0 Tesla magnet. […] The accurate mass data was then analyzed using Tcl/Tk routines, which serially search the mass spectra from each well for chemical composition of metabolic products. […]

## CC(C)(CO)CCCCOCCCCC(C)(C)CO [6-(6-hydroxy-5,5-dimethylhexyloxy)-2,2-dimethyl-hexan-1-ol]
[1]
  HDL-cholesterol: increases
  glucose utilization: improves
[2]
  intensity of FTMS peak of molecular mass approximately 766.4 Daltons: reproducibly higher intensities
  intensity of FTMS peak of molecular mass approximately 766.8 Daltons: reproducibly higher intensities

## CC[C@H](C)C(=O)O[C@H]1C[C@@H](C)C=C2C=C[C@H](C)[C@H](CC[C@@H]3C[C@@H](O)CC(=O)O3)[C@H]21 [lovastatin]
[3]
  relative intensity of FTMS peak at molecular mass 85.02815: decreasing trend
  relative intensity of FTMS peak at molecular mass 85.64405: increasing trend
